In publication PMC9151520 (Archives of Toxicology, 2022):
Several values for one entry are separate records, joined by “and”; a condition that tells them apart may be missing. Equal values may be shown once. Where a name gives a salt, the structure may show the parent alone. Read-outs that look alike come from different tables or passages of the source.

Experiments:
[1] = tested on: p53 signaling (p53RE-bla HCT-116 cells)
[2] = tested on: p53 signaling (p53RE-bla HCT-116 cells); experiment: cells; assay type: cell-based
[3] = tested on: p53 signaling (p53RE-bla HCT-116 cells); conditions: for EC50: read-out: p53 activation EC50, HLM
[4] = Homo sapiens, HCT-116, read-out: p53 activation EC50, primary screening
[5] = Homo sapiens, HCT-116, read-out: p53 activation efficacy, primary screening
[6] = read-out: p53 activation EC50, No MS
[7] = Homo sapiens, HCT-116, read-out: p53 activation EC50, cherry pick confirmation
[8] = Homo sapiens, HCT-116, read-out: p53 activation efficacy, cherry pick confirmation
[9] = Homo sapiens, HCT-116, read-out: EC50, p53 activation, primary screening
[10] = Homo sapiens, HCT-116, read-out: Efficacy, p53 activation, primary screening

CN(C)c1ccc(C(=N)c2ccc(N(C)C)cc2)cc1 [Auramine hydrochloride]
Viability EC50, cherry pick confirmation (p53RE-bla HCT-116 cells): inactive | Viability EC50, primary screening (p53RE-bla HCT-116 cells): inactive | Viability efficacy, cherry pick confirmation (p53RE-bla HCT-116 cells): inactive | Viability efficacy, primary screening (p53RE-bla HCT-116 cells): inactive | p53 activation EC50, cherry pick confirmation [1]: inactive | p53 activation EC50, primary screening [1]: inactive | p53 activation efficacy, cherry pick confirmation [1]: inactive | p53 activation efficacy, primary screening [1]: inactive | p53 activation EC50, cherry pick confirmation [2]: inactive | p53 activation efficacy, cherry pick confirmation [2]: inactive | EC50 [2, 4]: 3.94 µM | Emax [2, 5]: 37.6% | p53 activation EC50, cherry pick confirmation [3]: inactive | p53 activation EC50, primary screening [3]: inactive | p53 activation efficacy, cherry pick confirmation [3]: inactive | p53 activation efficacy, primary screening [3]: inactive

C[C@H]1CCCC(=O)CCC/C=C/c2cc(O)cc(O)c2C(=O)O1 [Zearalenone]
Viability EC50, cherry pick confirmation (p53RE-bla HCT-116 cells): inactive | Viability EC50, primary screening (p53RE-bla HCT-116 cells): inactive | Viability efficacy, cherry pick confirmation (p53RE-bla HCT-116 cells): inactive | Viability efficacy, primary screening (p53RE-bla HCT-116 cells): inactive | p53 activation EC50, cherry pick confirmation [1]: inactive | p53 activation EC50, primary screening [1]: inactive | p53 activation efficacy, cherry pick confirmation [1]: inactive | p53 activation efficacy, primary screening [1]: inactive | p53 activation EC50, cherry pick confirmation [2]: inactive | p53 activation efficacy, cherry pick confirmation [2]: inactive | EC50 [2, 4]: 16.8 µM | Emax [2, 5]: 49.2% | p53 activation EC50, cherry pick confirmation [3]: inactive | p53 activation EC50, primary screening [3]: inactive | p53 activation efficacy, cherry pick confirmation [3]: inactive | p53 activation efficacy, primary screening [3]: inactive

CCN(CC)c1ccc2c(C)cc(=O)oc2c1 [7-Diethylamino-4-methylcoumarin]
Viability EC50, HLM (p53RE-bla HCT-116 cells): inactive | Viability EC50, No MS (p53RE-bla HCT-116 cells): inactive | Viability EC50, RLM (p53RE-bla HCT-116 cells): inactive | Viability Efficacy, HLM (p53RE-bla HCT-116 cells): inactive | Viability Efficacy, No MS (p53RE-bla HCT-116 cells): inactive | Viability Efficacy, RLM (p53RE-bla HCT-116 cells): inactive | p53 activation EC50, RLM [1]: inactive | p53 activation Efficacy, RLM [1]: inactive | EC50 [2, 6]: 13 µM and 25.2 µM | p53 activation EC50, HLM [3]: inactive | EC50 [3]: 41.1 µM

CCOP(=O)(OCC)Oc1ccc([N+](=O)[O-])cc1 [Paraoxon]
Viability EC50, cherry pick confirmation (p53RE-bla HCT-116 cells): inactive | Viability EC50, primary screening (p53RE-bla HCT-116 cells): inactive | Viability efficacy, cherry pick confirmation (p53RE-bla HCT-116 cells): inactive | Viability efficacy, primary screening (p53RE-bla HCT-116 cells): inactive | p53 activation EC50, cherry pick confirmation [1]: inactive | p53 activation efficacy, cherry pick confirmation [1]: inactive | p53 activation EC50, cherry pick confirmation [2]: inactive | p53 activation EC50, primary screening [2]: inactive | p53 activation efficacy, cherry pick confirmation [2]: inactive | p53 activation efficacy, primary screening [2]: inactive | p53 activation EC50, cherry pick confirmation [3]: inactive | p53 activation efficacy, cherry pick confirmation [3]: inactive

COc1c(C)c2c(c(O)c1C/C=C(\C)CCC(=O)O)C(=O)OC2 [Mycophenolic acid]
Viability EC50, cherry pick confirmation (p53RE-bla HCT-116 cells): inactive | Viability EC50, primary screening (p53RE-bla HCT-116 cells): inactive | Viability efficacy, cherry pick confirmation (p53RE-bla HCT-116 cells): inactive | Viability efficacy, primary screening (p53RE-bla HCT-116 cells): inactive | p53 activation EC50, cherry pick confirmation [1]: inactive | p53 activation EC50, primary screening [1]: inactive | p53 activation efficacy, cherry pick confirmation [1]: inactive | p53 activation efficacy, primary screening [1]: inactive | EC50 [2, 7]: 0.172 µM | EC50 [2, 4]: 0.174 µM | Emax [2, 8]: 58.4% | Emax [2, 5]: 42.7% | p53 activation EC50, cherry pick confirmation [3]: inactive | p53 activation EC50, primary screening [3]: inactive | p53 activation efficacy, cherry pick confirmation [3]: inactive | p53 activation efficacy, primary screening [3]: inactive

Cc1ccccc1C(=O)Nc1ccc(C(=O)N2CCCC(N(C)C)c3ccccc32)cc1 (centres unmarked) [Mozavaptan]
Viability EC50, cherry pick confirmation (p53RE-bla HCT-116 cells): inactive | Viability EC50, primary screening (p53RE-bla HCT-116 cells): inactive | Viability efficacy, cherry pick confirmation (p53RE-bla HCT-116 cells): inactive | Viability efficacy, primary screening (p53RE-bla HCT-116 cells): inactive | p53 activation EC50, cherry pick confirmation [1]: inactive | p53 activation EC50, primary screening [1]: inactive | p53 activation efficacy, cherry pick confirmation [1]: inactive | p53 activation efficacy, primary screening [1]: inactive | EC50 [2, 7]: 1.36 µM | EC50 [2, 4]: 7.97 µM | Emax [2, 8]: 38.6% | Emax [2, 5]: 66.2% | p53 activation EC50, cherry pick confirmation [3]: inactive | p53 activation EC50, primary screening [3]: inactive | p53 activation efficacy, cherry pick confirmation [3]: inactive | p53 activation efficacy, primary screening [3]: inactive

COc1cccc2c1C(=O)c1c(O)c3c(c(O)c1C2=O)C[C@@](O)(C(=O)CO)C[C@@H]3O[C@H]1C[C@H](N)[C@H](O[C@@H]2CCCCO2)[C@H](C)O1 [Pirarubicin]
Viability EC50, cherry pick confirmation (p53RE-bla HCT-116 cells): inactive | Viability EC50, primary screening (p53RE-bla HCT-116 cells): inactive | Viability efficacy, primary screening (p53RE-bla HCT-116 cells): inactive | p53 activation EC50, cherry pick confirmation [1]: inactive | p53 activation EC50, primary screening [1]: inactive | p53 activation efficacy, cherry pick confirmation [1]: inactive | p53 activation efficacy, primary screening [1]: inactive | EC50 [2, 7]: 7.61 µM | EC50 [2, 4]: 2.19 µM | Emax [2, 8]: 287% | Emax [2, 5]: 142% | p53 activation EC50, cherry pick confirmation [3]: inactive | p53 activation EC50, primary screening [3]: inactive | p53 activation efficacy, cherry pick confirmation [3]: inactive | p53 activation efficacy, primary screening [3]: inactive

COC(=O)Nc1nc2ccc(Sc3ccccc3)cc2[nH]1 [Fenbendazole]
EC50, viability, cherry pick confirmation (p53RE-bla HCT-116 cells): inactive | EC50, viability, primary screening (p53RE-bla HCT-116 cells): inactive | Efficacy, viability, cherry pick confirmation (p53RE-bla HCT-116 cells): inactive | Efficacy, viability, primary screening (p53RE-bla HCT-116 cells): inactive | EC50, p53 activation, cherry pick confirmation [1]: inactive | EC50, p53 activation, primary screening [1]: inactive | Efficacy, p53 activation, cherry pick confirmation [1]: inactive | Efficacy, p53 activation, primary screening [1]: inactive | EC50, p53 activation, cherry pick confirmation [2]: inactive | Efficacy, p53 activation, cherry pick confirmation [2]: inactive | EC50 [2, 9]: 0.35 µM | Emax [2, 10]: 71% | EC50, p53 activation, cherry pick confirmation [3]: inactive | EC50, p53 activation, primary screening [3]: inactive | Efficacy, p53 activation, cherry pick confirmation [3]: inactive | Efficacy, p53 activation, primary screening [3]: inactive

CN1CCC(Nc2ncc3ncnc(Nc4ccc(F)c(Cl)c4)c3n2)CC1.Cl.Cl [Falnidamol dihydrochloride]
Viability EC50, HLM (p53RE-bla HCT-116 cells): inactive | Viability EC50, No MS (p53RE-bla HCT-116 cells): inactive | Viability EC50, RLM (p53RE-bla HCT-116 cells): inactive | Viability Efficacy, HLM (p53RE-bla HCT-116 cells): inactive | Viability Efficacy, No MS (p53RE-bla HCT-116 cells): inactive | Viability Efficacy, RLM (p53RE-bla HCT-116 cells): inactive | EC50 ([1]; read-out: p53 activation EC50, RLM): 17.2 µM and 8.9 µM | EC50 [2, 6]: 16.7 µM and 12.9 µM | p53 activation EC50, HLM [3]: inactive | EC50 [3]: 14.2 µM

C#C[C@]1(O)CC[C@H]2[C@@H]3CCc4cc(O)ccc4[C@H]3CC[C@@]21C [17alpha-Ethinylestradiol]
Viability EC50, cherry pick confirmation (p53RE-bla HCT-116 cells): inactive | Viability EC50, primary screening (p53RE-bla HCT-116 cells): inactive | Viability efficacy, cherry pick confirmation (p53RE-bla HCT-116 cells): inactive | Viability efficacy, primary screening (p53RE-bla HCT-116 cells): inactive | p53 activation EC50, cherry pick confirmation [1]: inactive | p53 activation EC50, primary screening [1]: inactive | p53 activation efficacy, cherry pick confirmation [1]: inactive | p53 activation efficacy, primary screening [1]: inactive | EC50 [2, 7]: 3.62 µM | EC50 [2, 4]: 11.9 µM | Emax [2, 8]: 50.6% | Emax [2, 5]: 38.5% | p53 activation EC50, cherry pick confirmation [3]: inactive | p53 activation EC50, primary screening [3]: inactive | p53 activation efficacy, cherry pick confirmation [3]: inactive | p53 activation efficacy, primary screening [3]: inactive

CC(=O)O[C@@H]1C(=O)O[C@H]2[C@@H]1OC(=O)[C@@H]2OC(C)=O [Aceglatone]
EC50, viability, cherry pick confirmation (p53RE-bla HCT-116 cells): inactive | EC50, viability, primary screening (p53RE-bla HCT-116 cells): inactive | Efficacy, viability, cherry pick confirmation (p53RE-bla HCT-116 cells): inactive | Efficacy, viability, primary screening (p53RE-bla HCT-116 cells): inactive | EC50, p53 activation, cherry pick confirmation [1]: inactive | EC50, p53 activation, primary screening [1]: inactive | Efficacy, p53 activation, cherry pick confirmation [1]: inactive | Efficacy, p53 activation, primary screening [1]: inactive | EC50, p53 activation, cherry pick confirmation [2]: inactive | Efficacy, p53 activation, cherry pick confirmation [2]: inactive | EC50 [2, 9]: 21.5 µM | Emax [2, 10]: 37.3% | EC50, p53 activation, cherry pick confirmation [3]: inactive | EC50, p53 activation, primary screening [3]: inactive | Efficacy, p53 activation, cherry pick confirmation [3]: inactive | Efficacy, p53 activation, primary screening [3]: inactive

Cc1cc(=O)oc2cc(N(C)C)ccc12 [7-(Dimethylamino)-4-methylcoumarin]
Viability EC50, cherry pick confirmation (p53RE-bla HCT-116 cells): inactive | Viability EC50, primary screening (p53RE-bla HCT-116 cells): inactive | Viability efficacy, cherry pick confirmation (p53RE-bla HCT-116 cells): inactive | Viability efficacy, primary screening (p53RE-bla HCT-116 cells): inactive | p53 activation EC50, cherry pick confirmation [1]: inactive | p53 activation efficacy, cherry pick confirmation [1]: inactive | p53 activation efficacy, cherry pick confirmation [2]: 79.8427 | p53 activation efficacy, primary screening [2]: 78.774 | EC50 ([2]; read-out: p53 activation EC50, cherry pick confirmation): 29.5 µM | EC50 ([2]; read-out: p53 activation EC50, primary screening): 35.2 µM | p53 activation EC50, cherry pick confirmation [3]: inactive | p53 activation efficacy, cherry pick confirmation [3]: inactive

CC(CN1CC(=O)NC(=O)C1)N1CC(=O)NC(=O)C1 (centres unmarked) [Razoxane]
Viability EC50, cherry pick confirmation (p53RE-bla HCT-116 cells): inactive | Viability EC50, primary screening (p53RE-bla HCT-116 cells): inactive | Viability efficacy, cherry pick confirmation (p53RE-bla HCT-116 cells): inactive | Viability efficacy, primary screening (p53RE-bla HCT-116 cells): inactive | p53 activation EC50, cherry pick confirmation [1]: inactive | p53 activation EC50, primary screening [1]: inactive | p53 activation efficacy, cherry pick confirmation [1]: inactive | p53 activation efficacy, primary screening [1]: inactive | EC50 [2, 7]: 20.9 µM | EC50 [2, 4]: 11.5 µM | Emax [2, 8]: 31.9% | Emax [2, 5]: 60.2% | p53 activation EC50, cherry pick confirmation [3]: inactive | p53 activation EC50, primary screening [3]: inactive | p53 activation efficacy, cherry pick confirmation [3]: inactive | p53 activation efficacy, primary screening [3]: inactive
